According to US6403629B2, “Heterocyclic compounds for therapeutic use” (J.B. Chemical and Pharmaceuticals Limited, priority 2000, dated 2002):

Structure (SMILES): Cc1ccc(-c2cc(C(F)(F)F)nn2-c2ccc(F)cc2F)cc1 [Example 2C, 1-(2,4-Difluorophenyl)-5-(4-methylphenyl)-3-(trifluoromethyl)pyrazole]
- melting point: 83 °C

Structure (SMILES): Cc1ccc(-c2cc(C(F)(F)F)nn2-c2cc(C)ccc2F)cc1 [Example 2H, 1-(2-Fluoro-5-methylphenyl)-5-(4-methylphenyl)-3-(trifluoromethyl)pyrazole]
- melting point: 45 °C
